Source: patent publication US20250281480A1, “PHARMACEUTICAL DRY POWDER INHALATION FORMULATION” (Bayer Aktiengesellschaft, priority 2021, published 2025)

Test system: cGMP
Assay: Phase I, healthy male subjects, inhaled once daily for 14 days: cGMP
Type: in vivo, human
Conditions: for cGMP changes from baseline: 1000 μg inhaled once daily for 14 days, n = 17; for cGMP concntration over time (mean +/− standard deviation): 1000 μg inhaled once daily, 14 days
Method: Healthy white male subjects, aged 18 to 45 years and with a body mass index (BMI) above/equal 18.5 and below/equal 29.9 kg/m2 were treated in a clinical pharmacological phase I study for 14 days with inhaled once daily doses of 1000 μg (nominal dose) or Placebo of dry powder of example 4. […] Drug activity/target engagement in healthy men was controlled in the healthy subjects by analysing blood samples for cGMP.

## O=C(O)c1ccc(CCN(CCc2ccccc2OCc2ccc(-c3ccc(C(F)(F)F)cc3)cc2Cl)[C@H]2CCCc3nc(C(=O)O)ccc32)cc1 [Example 4, (5S)—{[2-(4-Carboxyphenyl)ethyl][2-(2-{[3-chloro-4′-(trifluoromethyl)biphenyl-4-yl]methoxy}phenyl)-ethyl]amino}-5,6,7,8-tetrahydroquinoline-2-carboxylic Acid as Monohydrate I]
0 D 02 H 00 M
  cGMP changes from baseline: 4840 pmol/L
  cGMP concntration over time (mean +/− standard deviation): 9170 pmol/L
0 D 04 H 00 M
  cGMP changes from baseline: 7290 pmol/L
  cGMP concntration over time (mean +/− standard deviation): 11600 pmol/L
0 D 06 H 00 M
  cGMP changes from baseline: 9950 pmol/L
  cGMP concntration over time (mean +/− standard deviation): 14300 pmol/L
0 D 08 H 00 M
  cGMP changes from baseline: 10600 pmol/L
  cGMP concntration over time (mean +/− standard deviation): 14900 pmol/L
0 D 12 H 00 M
  cGMP changes from baseline: 7530 pmol/L
  cGMP concntration over time (mean +/− standard deviation): 11800 pmol/L
0 D 15 H 00 M
  cGMP changes from baseline: 6740 pmol/L
  cGMP concntration over time (mean +/− standard deviation): 11100 pmol/L
1 D 00 H 00 M
  cGMP changes from baseline: 2980 pmol/L
  cGMP concntration over time (mean +/− standard deviation): 7310 pmol/L
2 D 00 H 00 M
  cGMP changes from baseline: 4550 pmol/L
  cGMP concntration over time (mean +/− standard deviation): 8880 pmol/L
2 D 03 H 00 M
  cGMP changes from baseline: 13000 pmol/L
  cGMP concntration over time (mean +/− standard deviation): 17300 pmol/L
2 D 08 H 00 M
  cGMP changes from baseline: 16400 pmol/L
  cGMP concntration over time (mean +/− standard deviation): 20800 pmol/L
2 D 12 H 00 M
  cGMP changes from baseline: 12600 pmol/L
  cGMP concntration over time (mean +/− standard deviation): 16900 pmol/L
3 D 00 H 00 M (trough prior inhalation)
  cGMP changes from baseline: 5160 pmol/L
4 D 00 H 00 M (trough prior inhalation)
  cGMP changes from baseline: 6360 pmol/L
5 D 00 H 00 M (trough prior inhalation)
  cGMP changes from baseline: 5920 pmol/L
6 D 00 H 00 M
  cGMP changes from baseline: 5090 pmol/L
  cGMP concntration over time (mean +/− standard deviation): 9420 pmol/L
6 D 03 H 00 M
  cGMP changes from baseline: 13400 pmol/L
  cGMP concntration over time (mean +/− standard deviation): 17700 pmol/L
6 D 08 H 00 M
  cGMP changes from baseline: 20100 pmol/L
  cGMP concntration over time (mean +/− standard deviation): 24500 pmol/L
6 D 12 H 00 M
  cGMP changes from baseline: 13900 pmol/L
  cGMP concntration over time (mean +/− standard deviation): 18200 pmol/L
7 D 00 H 00 M (trough prior inhalation)
  cGMP changes from baseline: 6180 pmol/L
8 D 00 H 00 M (trough prior inhalation)
  cGMP changes from baseline: 6200 pmol/L
9 D 00 H 00 M (trough prior inhalation)
  cGMP changes from baseline: 6580 pmol/L
10 D 00 H 00 M
  cGMP changes from baseline: 6450 pmol/L
  cGMP concntration over time (mean +/− standard deviation): 10800 pmol/L
10 D 03 H 00 M
  cGMP changes from baseline: 12700 pmol/L
  cGMP concntration over time (mean +/− standard deviation): 17100 pmol/L
10 D 08 H 00 M
  cGMP changes from baseline: 17500 pmol/L
  cGMP concntration over time (mean +/− standard deviation): 21900 pmol/L
10 D 12 H 00 M
  cGMP changes from baseline: 13000 pmol/L
  cGMP concntration over time (mean +/− standard deviation): 17300 pmol/L
11 D 00 H 00 M (trough prior inhalation)
  cGMP changes from baseline: 6940 pmol/L
12 D 00 H 00 M (trough prior inhalation)
  cGMP changes from baseline: 8060 pmol/L
12 D 22 H 00 M
  cGMP changes from baseline: 6950 pmol/L
  cGMP concntration over time (mean +/− standard deviation): 11300 pmol/L
13 D 02 H 00 M (after last inhalation)
  cGMP changes from baseline: 9120 pmol/L
13 D 04 H 00 M (after last inhalation)
  cGMP changes from baseline: 12900 pmol/L
13 D 06 H 00 M (after last inhalation)
  cGMP changes from baseline: 17000 pmol/L
13 D 08 H 00 M (after last inhalation)
  cGMP changes from baseline: 17700 pmol/L
13 D 12 H 00 M (after last inhalation)
  cGMP changes from baseline: 12900 pmol/L
13 D 15 H 00 M (after last inhalation)
  cGMP changes from baseline: 12100 pmol/L
14 D 00 H 00 M (after last inhalation)
  cGMP changes from baseline: 5410 pmol/L
15 D 00 H 00 M (after last inhalation)
  cGMP changes from baseline: 2520 pmol/L
15 D 12 H 00 M (after last inhalation)
  cGMP changes from baseline: 3040 pmol/L
16 D 00 H 00 M (after last inhalation)
  cGMP changes from baseline: 2000 pmol/L
16 D 12 H 00 M (after last inhalation)
  cGMP changes from baseline: 2410 pmol/L
17 D 00 H 00 M (after last inhalation)
  cGMP changes from baseline: 400 pmol/L
20 D 00 H 00 M (after last inhalation)
  cGMP changes from baseline: 1220 pmol/L
FOLLOW-UP
  cGMP changes from baseline: 1520 pmol/L
  cGMP concntration over time (mean +/− standard deviation): 5850 pmol/L
−0 D 09 H 00 M (pretreatment day)
  cGMP changes from baseline: 224 pmol/L
−0 D 12 H 00 M (pretreatment day)
  cGMP changes from baseline: 306 pmol/L
−0 D 16 H 00 M (pretreatment day)
  cGMP changes from baseline: 676 pmol/L
−0 D 18 H 00 M (pretreatment day)
  cGMP changes from baseline: −252.9 +/− 1345.9
−0 D 20 H 00 M (pretreatment day)
  cGMP changes from baseline: −952.9 +/− 1984.7
−0 D 22 H 00 M (pretreatment day)
  cGMP changes from baseline: −100.0 +/− 1403.1
3 D 00 H 00 M
  cGMP concntration over time (mean +/− standard deviation): 9490 pmol/L
4 D 00 H 00 M
  cGMP concntration over time (mean +/− standard deviation): 10700 pmol/L
5 D 00 H 00 M
  cGMP concntration over time (mean +/− standard deviation): 10300 pmol/L
7 D 00 H 00 M
  cGMP concntration over time (mean +/− standard deviation): 10500 pmol/L
8 D 00 H 00 M
  cGMP concntration over time (mean +/− standard deviation): 10500 pmol/L
9 D 00 H 00 M
  cGMP concntration over time (mean +/− standard deviation): 10900 pmol/L
11 D 00 H 00 M
  cGMP concntration over time (mean +/− standard deviation): 11300 pmol/L
12 D 00 H 00 M
  cGMP concntration over time (mean +/− standard deviation): 12400 pmol/L
13 D 02 H 00 M
  cGMP concntration over time (mean +/− standard deviation): 13400 pmol/L
13 D 04 H 00 M
  cGMP concntration over time (mean +/− standard deviation): 17300 pmol/L
13 D 06 H 00 M
  cGMP concntration over time (mean +/− standard deviation): 21400 pmol/L
13 D 08 H 00 M
  cGMP concntration over time (mean +/− standard deviation): 22000 pmol/L
13 D 12 H 00 M
  cGMP concntration over time (mean +/− standard deviation): 17200 pmol/L
13 D 15 H 00 M
  cGMP concntration over time (mean +/− standard deviation): 16400 pmol/L
14 D 00 H 00 M
  cGMP concntration over time (mean +/− standard deviation): 9740 pmol/L
15 D 00 H 00 M
  cGMP concntration over time (mean +/− standard deviation): 6850 pmol/L
15 D 12 H 00 M
  cGMP concntration over time (mean +/− standard deviation): 7370 pmol/L
16 D 00 H 00 M
  cGMP concntration over time (mean +/− standard deviation): 6330 pmol/L
16 D 12 H 00 M
  cGMP concntration over time (mean +/− standard deviation): 6740 pmol/L
17 D 00 H 00 M
  cGMP concntration over time (mean +/− standard deviation): 4730 pmol/L
20 D 00 H 00 M
  cGMP concntration over time (mean +/− standard deviation): 5520 pmol/L
−0 D 02 H 00 M
  cGMP concntration over time (mean +/− standard deviation): 4330 pmol/L
−0 D 09 H 00 M
  cGMP concntration over time (mean +/− standard deviation): 5490 pmol/L
−0 D 12 H 00 M
  cGMP concntration over time (mean +/− standard deviation): 5570 pmol/L
−0 D 16 H 00 M
  cGMP concntration over time (mean +/− standard deviation): 5940 pmol/L
−0 D 18 H 00 M
  cGMP concntration over time (mean +/− standard deviation): 5010 pmol/L
−0 D 20 H 00 M
  cGMP concntration over time (mean +/− standard deviation): 4310 pmol/L
−0 D 22 H 00 M
  cGMP concntration over time (mean +/− standard deviation): 5160 pmol/L
−1 D 02 H 00 M
  cGMP concntration over time (mean +/− standard deviation): 5260 pmol/L
1000 μg once daily inhalation
  steady state of cGMP concentration reached after: ≤ 11 days
